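Values below derive from 48-hour exposures of cells grown in 96-well plates, with endpoints linearly interpolated between the two concentrations bracketing the appropriate inhibition level. At the GI50, growth is halved.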 Calls of active or inactive are those of the source. Cut-off read from the data, not from the text of the source: active = GI50 up to about 1.1 µM and inactive = higher.
Experiments:
Test in all cases: inhibition of tumour cell growth, NCI panel, 48 h
HT-29 = system: HT-29
MOLT-4 = system: MOLT-4
HOP-62 = system: HOP-62
CCRF-CEM = system: CCRF-CEM
RPMI-8226 = system: RPMI-8226
UACC-257 = system: UACC-257
SK-OV-3 = system: SK-OV-3
UO-31 = system: UO-31
KM12 = system: KM12
TK-10 = system: TK-10
SF-295 = system: SF-295
SW-620 = system: SW-620
786-0 = system: 786-0
HCC 2998 = system: HCC 2998
UACC-62 = system: UACC-62

Row | Compound | GI50 (HT-29) | GI50 (MOLT-4) | GI50 (HOP-62) | GI50 (CCRF-CEM) | GI50 (RPMI-8226) | GI50 (UACC-257) | GI50 (SK-OV-3) | GI50 (UO-31) | GI50 (KM12) | GI50 (TK-10) | GI50 (SF-295) | GI50 (SW-620) | GI50 (786-0) | GI50 (HCC 2998) | GI50 (UACC-62)
1 | Cc1cccc2[n+]1[C@H]1[C@H]([C@@H]3O[C@H]1c1ccccc13)[S+]([O-])N2 (stereo partly specified) | 34.4 µM (inactive) | 38.2 µM (inactive) | 48.1 µM (inactive) | 34.8 µM (inactive) | 10.8 µM (inactive) | 32.5 µM (inactive) | > 100 µM (inactive) | 64.7 µM (inactive) | 42.4 µM (inactive) | 90.4 µM (inactive) | 59.8 µM (inactive) | > 100 µM (inactive) | > 100 µM (inactive) | 72.8 µM (inactive) | –
2 | N#C/C(=C\c1cc2ccccc2c2ccccc12)c1ccccc1 | 4.45 µM (inactive) | 7.26 µM (inactive) | 2.49 µM (inactive) | 3.59 µM (inactive) | 6.59 µM (inactive) | 9.62 µM (inactive) | 6.73 µM (inactive) | 22.2 µM (inactive) | 5.98 µM (inactive) | > 29.7 µM (inactive) | 5.93 µM (inactive) | 4.65 µM (inactive) | 5.43 µM (inactive) | 11 µM (inactive) | 3.75 µM (inactive)
3 | O=C(N/N=C(/c1nc2ccc(Cl)cc2[nH]c1=O)C(O)c1ccc(Cl)cc1Cl)c1ccncc1 (stereo unspecified) | > 100 µM (inactive) | > 100 µM (inactive) | > 100 µM (inactive) | > 100 µM (inactive) | > 100 µM (inactive) | > 100 µM (inactive) | > 100 µM (inactive) | > 100 µM (inactive) | > 100 µM (inactive) | > 100 µM (inactive) | > 100 µM (inactive) | > 100 µM (inactive) | > 100 µM (inactive) | > 100 µM (inactive) | > 100 µM (inactive)
4 | NCCCNCCSSCCCCS(=O)O | 39.8 µM (inactive) | 5.09 µM (inactive) | > 100 µM (inactive) | – | 26.1 µM (inactive) | 17.2 µM (inactive) | > 100 µM (inactive) | 30.6 µM (inactive) | > 10 µM (inactive) | > 100 µM (inactive) | 36.2 µM (inactive) | 30.4 µM (inactive) | > 100 µM (inactive) | > 100 µM (inactive) | 15.7 µM (inactive)
5 | CC(=O)C1=C(C)Cn2c(=O)c3ccccc3c(=O)n2C1 | > 100 µM (inactive) | > 100 µM (inactive) | > 100 µM (inactive) | > 100 µM (inactive) | > 100 µM (inactive) | > 100 µM (inactive) | > 100 µM (inactive) | > 100 µM (inactive) | > 100 µM (inactive) | > 100 µM (inactive) | > 100 µM (inactive) | > 100 µM (inactive) | > 100 µM (inactive) | > 100 µM (inactive) | –
6 | Cc1cccc(C)c1NC(=O)C(=O)CC(=O)c1cccc([N+](=O)[O-])c1 | > 100 µM (inactive) | > 100 µM (inactive) | > 100 µM (inactive) | > 100 µM (inactive) | > 100 µM (inactive) | > 100 µM (inactive) | – | > 100 µM (inactive) | > 100 µM (inactive) | > 100 µM (inactive) | > 100 µM (inactive) | > 100 µM (inactive) | > 100 µM (inactive) | – | > 100 µM (inactive)
7 | COC1=C(Br)C(=O)c2nc(C)ccc2C1=O | 19.4 µM (inactive) | 2.4 µM (inactive) | > 44.6 µM (inactive) | 0.871 µM (active) | – | 13.6 µM (inactive) | 19.4 µM (inactive) | 18.5 µM (inactive) | 17.7 µM (inactive) | 18.4 µM (inactive) | 20.4 µM (inactive) | 8.15 µM (inactive) | 14.1 µM (inactive) | 18.1 µM (inactive) | 19 µM (inactive)
8 | COc1ccc(NC(=O)COC(=O)c2cccc3c(=O)c4ccccc4[nH]c23)cc1 | 16 µM (inactive) | 14.2 µM (inactive) | 23.8 µM (inactive) | 13.8 µM (inactive) | – | 19.9 µM (inactive) | 30.2 µM (inactive) | 14.8 µM (inactive) | 16.9 µM (inactive) | 15.8 µM (inactive) | 19.5 µM (inactive) | 22.2 µM (inactive) | 19.1 µM (inactive) | 51.1 µM (inactive) | 17.7 µM (inactive)
9 | COc1ccc(C2c3cc4c(cc3OC(O)(CO)C2C(=O)O)OCO4)c(OC)c1OC.COc1ccc(C2c3cc4c(cc3OC3(O)COC(=O)C23)OCO4)c(OC)c1OC (stereo unspecified) | > 100 µM (inactive) | > 100 µM (inactive) | > 100 µM (inactive) | 39.4 µM (inactive) | > 100 µM (inactive) | > 100 µM (inactive) | > 100 µM (inactive) | > 100 µM (inactive) | – | > 100 µM (inactive) | > 100 µM (inactive) | > 100 µM (inactive) | > 100 µM (inactive) | – | > 100 µM (inactive)
10 | CC(Oc1ccc2c(=O)cc(-c3ccccc3)oc2c1)C(=O)O (stereo unspecified) | > 100 µM (inactive) | > 100 µM (inactive) | > 100 µM (inactive) | > 100 µM (inactive) | – | > 100 µM (inactive) | > 100 µM (inactive) | > 100 µM (inactive) | > 100 µM (inactive) | > 100 µM (inactive) | > 100 µM (inactive) | > 100 µM (inactive) | > 100 µM (inactive) | > 100 µM (inactive) | > 100 µM (inactive)
11 | CCOc1cc2c[n+](C)c3c4cc(OC)c(OC)cc4ccc3c2cc1OC | 13.6 µM (inactive) | > 100 µM (inactive) | > 100 µM (inactive) | 20.8 µM (inactive) | > 100 µM (inactive) | > 100 µM (inactive) | – | > 100 µM (inactive) | > 100 µM (inactive) | > 100 µM (inactive) | > 100 µM (inactive) | > 100 µM (inactive) | 17.7 µM (inactive) | > 100 µM (inactive) | –
12 | COc1ccc(S(=O)(=O)NNS(C)(=O)=O)cc1 | > 100 µM (inactive) | > 100 µM (inactive) | > 100 µM (inactive) | 70 µM (inactive) | > 100 µM (inactive) | > 100 µM (inactive) | – | > 100 µM (inactive) | > 100 µM (inactive) | > 100 µM (inactive) | > 100 µM (inactive) | > 100 µM (inactive) | > 100 µM (inactive) | > 100 µM (inactive) | > 100 µM (inactive)
13 | CC(=O)Nc1ccc(-c2nnc(SCC(=O)Nc3ccc(C)cc3)o2)cc1 | 17 µM (inactive) | 32.1 µM (inactive) | 56.2 µM (inactive) | 24.3 µM (inactive) | 26.2 µM (inactive) | 20.3 µM (inactive) | 49.2 µM (inactive) | 47.6 µM (inactive) | 19.1 µM (inactive) | 27.8 µM (inactive) | 16.6 µM (inactive) | 19.1 µM (inactive) | 17 µM (inactive) | – | 16.9 µM (inactive)
14 | O=C1/C(=C/c2ccc(Cl)cc2)CNC/C1=C\c1ccc(Cl)cc1 | – | 2.28 µM (inactive) | 3.42 µM (inactive) | – | 0.267 µM (active) | – | 10.8 µM (inactive) | – | 1.44 µM (inactive) | 4.06 µM (inactive) | – | 0.792 µM (active) | 2.07 µM (inactive) | 2.23 µM (inactive) | 2.07 µM (inactive)
